{"source": "patent US20050197350A1", "about": "“Novel quinoline, tetrahydroquinazoline, and pyrimidine derivatives and methods of treatment related to the use thereof” (TAISHO PHARMACEUTICAL CO., LTD., priority 2003, published 2005)", "system": "MCH receptors", "test": "MCH receptor activity class (method not given)", "key": {"[1]": {"conditions": "class by percent of control at 10^-7 M or IC50"}, "[2]": {"conditions": "MCH receptor, class by percent of control at 10^-7 M or IC50"}, "[3]": {"conditions": "MCH receptor activity class 1-3 (percent of control at 10^-7 M or IC50)"}, "[4]": {"conditions": "class 1-3 by percent of control at 10^-7 M or IC50"}}}
{"smiles": "CN(C)c1ccnc(N[C@H]2CC[C@@H](NC(=O)Nc3ccc(F)cc3)CC2)n1", "note": "[compound 2184]", "values": [{"measurement": "class", "setting": "[1]", "result": "3 (Class 3 The value of percent of control at 10^−7 M was more than 60% or the value of IC50 was more than 200 nM.)"}]}
{"smiles": "CN(C)c1nc(N[C@H]2CC[C@@H](NC(=S)Nc3ccccc3Cl)CC2)nc2c1CCCC2", "note": "[compound 1964]", "values": [{"measurement": "class", "setting": "[2]", "result": "3 (Class 3 The value of percent of control at 10^−7 M was more than 60% or the value of IC50 was more than 200 nM.)"}]}
{"smiles": "Cc1ccc([N+](=O)[O-])cc1NC(=O)N[C@H]1CC[C@@H](Nc2cc(N(C)C)c3ccccc3n2)CC1", "note": "[compound 2145]", "values": [{"measurement": "class", "setting": "[1]", "result": "3 (Class 3 The value of percent of control at 10^−7 M was more than 60% or the value of IC50 was more than 200 nM.)"}]}
{"smiles": "Cc1ccccc1NC(=O)NC[C@H]1CC[C@@H](Nc2nc3c(c(N(C)C)n2)CCCC3)CC1", "note": "[compound 2460]", "values": [{"measurement": "class", "setting": "[3]", "result": "3 (Class 3 The value of percent of control at 10^−7 M was more than 60% or the value of IC50 was more than 200 nM.)"}]}
{"smiles": "Cc1c(Cl)cccc1NC(=S)N[C@H]1CC[C@@H](Nc2nc3c(c(N(C)C)n2)CCCC3)CC1", "note": "[compound 1786]", "values": [{"measurement": "class", "setting": "[1]", "result": "3 (Class 3 The value of percent of control at 10^−7 M was more than 60% or the value of IC50 was more than 200 nM.)"}]}
{"smiles": "CN(C)c1nc(N[C@H]2CC[C@@H](NC(=O)c3csc4ccccc34)CC2)nc2c1CCCC2", "note": "[compound 527]", "values": [{"measurement": "class", "setting": "[4]", "result": "3 (Class 3 The value of percent of control at 10^−7 M was more than 60% or the value of IC50 was more than 200 nM.)"}]}
{"smiles": "CN(C)c1nc(N[C@H]2CC[C@@H](NC(=O)c3cccc(F)c3)CC2)nc2c1CCCC2", "note": "[compound 541]", "values": [{"measurement": "class", "setting": "[4]", "result": "1 (Class 1: The value of percent of control at 10^−7 M was less than 40% or the value of IC50 was less than 50 nM.)"}]}
{"smiles": "CCOc1ccccc1NC(=O)N[C@H]1CC[C@@H](Nc2nc(C)c(C)c(N(C)C)n2)CC1", "note": "[compound 2868]", "values": [{"measurement": "class", "setting": "class by percent of control at 10^−7 M or IC50", "result": "1 (Class 1: The value of percent of control at 10^−7 M was less than 40% or the value of IC50 was less than 50 nM.)"}]}
{"smiles": "Cc1onc(-c2ccccc2)c1NC(=O)N[C@H]1CC[C@@H](Nc2nc3c(c(N(C)C)n2)CCCC3)CC1", "note": "[compound 1736]", "values": [{"measurement": "class", "setting": "[1]", "result": "1 (Class 1: The value of percent of control at 10^−7 M was less than 40% or the value of IC50 was less than 50 nM.)"}]}
{"smiles": "Cc1ccc2occ(CN[C@H]3CC[C@@H](Nc4cc(N(C)C)c5ccccc5n4)CC3)c(=O)c2c1", "note": "[compound 1107]", "values": [{"measurement": "class", "setting": "activity class per percent of control at 10^-7 M or IC50", "result": "3 (Class 3 The value of percent of control at 10^−7 M was more than 60% or the value of IC50 was more than 200 nM.)"}]}
{"smiles": "CC(C(=O)N[C@H]1CC[C@@H](Nc2cc(N(C)C)c3ccccc3n2)CC1)c1ccc(-c2ccccc2)c(F)c1", "note": "(relative stereo) [compound 708]", "values": [{"measurement": "class", "setting": "[1]", "result": "3 (Class 3 The value of percent of control at 10^−7 M was more than 60% or the value of IC50 was more than 200 nM.)"}]}
{"smiles": "CCc1cccc(C)c1NC(=O)NC[C@H]1CC[C@@H](Nc2cc(N(C)C)c3ccccc3n2)CC1", "note": "[compound 2362, N-[(cis-4-{[4-(dimethylamino)quinolin-2-yl]amino}cyclohexyl)methyl]-N′-(2-ethyl-6-methylphenyl)urea]", "values": [{"measurement": "class", "setting": "[3]", "result": "2 (Class 2: The value of percent of control at 10^−7 M was from 40% to 60% or the value of IC′50 was from 50 nM to 200 nM.)"}]}
{"smiles": "CC(NC(=O)NC1CCC(Nc2cc(N(C)C)c3ccccc3n2)CC1)c1ccccc1", "note": "(stereo not drawn) [compound 2137]", "values": [{"measurement": "class", "setting": "[1]", "result": "3 (Class 3 The value of percent of control at 10^−7 M was more than 60% or the value of IC50 was more than 200 nM.)"}]}
{"smiles": "C[C@H](C(=O)N[C@H]1CC[C@@H](Nc2nccc(N(C)C)n2)CC1)c1cccc(C(=O)c2ccccc2)c1", "note": "[compound 878, (2S)-2-(3-benzoylphenyl)-N-(cis-4-{[4-(dimethylamino)pyrimidin-2-yl]amino}cyclohexyl)propanamide]", "values": [{"measurement": "class", "setting": "[1]", "result": "2 (Class 2: The value of percent of control at 10^−7 M was from 40% to 60% or the value of IC′50 was from 50 nM to 200 nM.)"}]}
{"smiles": "CN(C)c1nc(N[C@H]2CC[C@@H](NC(=S)Nc3ccccc3I)CC2)nc2c1CCCC2", "note": "[compound 1979]", "values": [{"measurement": "class", "setting": "[2]", "result": "3 (Class 3 The value of percent of control at 10^−7 M was more than 60% or the value of IC50 was more than 200 nM.)"}]}
